The values below come from US12171232B1, “N-[(4,6-dimethylpyrimidin-2-yl)carbamothioyl] pyridine-3-carboxamide as an eco-friendly insecticidal agent against Spodoptera littoralis (boisd.)” (KING FAISAL UNIVERSITY, priority 2023, dated 2024).

Values after ≈ are worked out from the molar mass of the structure shown. Like-named read-outs stand apart in the source and are kept apart here.

In the experiment the test system is Spodoptera littoralis. Description: Insecticidal bioassay screening (castor leaf dip) on larvae of the laboratory strain of cotton leafworm. Format: in vivo. Particulars: for Toxicity index %: 72 hrs, Diflubenzuron's LC50 / compound's LC50 x 100; for LC90 (mg/L) at 95%: laboratory strain, after 72 hrs of treatment; for LC50: Spodoptera littoralis, foliar. As for the experimental part: Five concentrations (200, 100, 50, 25, 12.5 ppm) were designed for this synthetic compound and the reference Diflubenzuron compound as the dynamic ingredients based on ppm via diluting the commercial formulation.
In this experiment, castor leaves are immersed in each of the previously prepared concentrations of the components for 10 seconds and then left to dry for 60 minutes. Larvae of the second and fourth instars of each checked strain are prepared with treated leaves in gauze-covered glass containers for 72 hrs. An untreated control is made in which leaves are dipped in triton x-100 and distilled water only. Then the preserved leaves were removed & fresh, untreated leaves were provided for 72 hours. Three replicates (10 larvae each) were checked for each concentration. Daily inspection was carried out for all treatments and mortality percentages were recorded 3 days (72 hours) after treatment. The average mortality percentage was corrected employing Abbott's formula. The corrected mortality rate for each of the previously synthesized compounds is statistically calculated according to Finney (1970). Through this rate, the corresponding concentration test lines (LDP lines) are assessed.

The mark [1] stands for this setting: 72 h, read-out: LC50 (mg/L) at 95%, 2nd instar larvae, laboratory strain, after 72 hrs of treatment.
Where [2] appears, read: 72 h, read-out: LC50 (mg/L) at 95%, 4th instar larvae, laboratory strain, after 72 hrs of treatment.

For `Cc1cc(C)nc(NC(=S)NC(=O)c2cccnc2)n1` [Compound 2, N-[(4,6-Dimethylpyrimidin-2-yl)carbamothioyl]pyridine-3-carboxamide], the Toxicity index % by setting is: (2nd instar larvae) 31.8%; (4th instar larvae) 44.9%. The “LC90 (mg/L) at 95%” value (2nd instar larvae) stood at 2112.3 mg/L (≈ 7350 µM) and the “LC90 (mg/L) at 95%” value (4th instar larvae) is on record as 5732.3 mg/L (≈ 19900 µM). The LC50 under setting [1] is roughly 142 mg/L (≈ 495 µM) and the LC50 under setting [2] was roughly 321 mg/L (≈ 1120 µM). The “activity against Spodoptera littoralis” value (result in words, from Table 1 and FIGS. 2A-2B, 72 h) is on record as “active”.
As for `O=C(NC(=O)c1c(F)cccc1F)Nc1ccc(Cl)cc1` [Diflubenzuron], the Toxicity index % reads like this: (2nd instar larvae) 100%; (4th instar larvae) 100%. For the same compound, the “LC90 (mg/L) at 95%” value (2nd instar larvae) was 520.0 mg/L (≈ 1670 µM) and the “LC90 (mg/L) at 95%” value (4th instar larvae) is listed as 1540.5 mg/L (≈ 4960 µM). Further, the LC50 under setting [1] came to 45.2 mg/L (≈ 145 µM); the LC50 under setting [2] amounted to 144 mg/L (≈ 464 µM); the LC50 (against Spodoptera littoralis under laboratory conditions, instar not stated) came to 45.2 mg/L (≈ 145 µM).
